{"source": "patent US20190070128A1", "about": "“USE OF CANNABIDIVARIN IN THE TREATMENT OF AUTISM SPECTRUM DISORDER, ASSOCIATED DISORDERS AND SCHIZOPHRENIA” (GW Research Limited, priority 2016, published 2019)", "system": "VPA-exposed rats", "assay": "short-term memory, novel object recognition test, prenatal VPA model", "format": "in vivo, rat", "experimental": "Pregnant Sprague-Dawley rats (Charles River, Calco, Italy), received a single intraperitoneal injection of 500 mg/kg sodium valproate on the 12.5 day after conception, and control females were injected with physiological saline at the same time. Sodium valproate (Sigma Aldrich, Milan, IT) was dissolved in saline at a concentration of 250 mg/ml.\nCBDV was dissolved in ethanol, cremophor and saline (1:1:18). Symptomatic treatment with CBDV at doses of 0.2, 2, 20, and 100 mg/kg/day i.p. was performed starting from PND 34 (early adolescence) till 56 (early adulthood), both in male and female offspring of dams injected with VPA 500 mg/kg (or vehicle) on day 12.5 after conception. […]\nShort-term memory: The experimental apparatus used for the object recognition test was an open-field box (43×43×32 cm) made of Plexiglas, placed in a dimly illuminated room. The experiment was performed and analysed as previously described (Zamberletti et al, 2014). […]\nEach animal was placed in the arena and allowed to explore two identical previously unseen objects for 5 minutes (familiarization phase). […] During the test phase the time spent exploring the familiar object (Ef) and the new object (En) was videotaped and recorded separately by two observers blind to the treatment groups and the discrimination index was calculated as follows: [(En−Ef)/(En+Ef)]×100.", "data": [{"smiles": "C=C(C)[C@@H]1CCC(C)=C[C@H]1c1c(O)cc(CCC)cc1O", "note": "[CBDV, Cannabidivarin]", "values": [{"measurement": "short-term memory deficit (discrimination index)", "setting": "male and female VPA rats, 2, 20 and 100 mg/kg", "result": "completely and significantly reversed"}, {"measurement": "recognition memory per se", "setting": "vehicle-treated (non VPA) rats", "result": "without affecting"}]}]}
